Measured values taken from US20250313879A1, “Fluorescent Probe for Detecting Peptide Bond Hydrolase” (The University of Tokyo, priority 2022, published 2025).
Numbered stars: 1 amine (or outer) side, 2 acyl side, 3 side chain; on linkers, the order of the positions; unused ones are H or OH. Square brackets hold non-standard residues; d marks the D form. Peptide text beside a SMILES is read from it. * marks the point of attachment. X2 = Cc1ccc(S(=O)(=O)O)cc1C1=C2C=CC(=N)C=C2[Si](C)(C)c2cc(N*)ccc21; X1 = Nc1ccc2c(c1)Oc1cc(N*)ccc1C21OCc2cc(S(=O)(=O)O)ccc21; Suc = O=C(CCC(=O)[*:2])[*:1]

Tests used:
Type in all cases: biochemical
[1] = test system: peptidase activity in human plasma sample; experiment: Enzyme activity assay in microdevice with human plasma, peptidase probes; conditions: 50 μM probe
Procedure: (§1) • 1. GP-sHMRG as a fluorescent probe for detecting peptidase activity was diluted with an assay buffer to 100 μM. The composition of the assay buffer is 100 mM HEPES-NaOH (pH 7.4), 1 mM MgCl2, 1 mM CaCl2, 1 mM DTT, 3 mM Triton X-100. • 2. Next, a human plasma sample was diluted by 2,500 times with the above assay buffer, and mixed in an equal amount with the diluted solution of the probe. At this time, the final concentrations of both are 50 μM for GP-sHMRG and 5,000 fold dilution for the human plasma sample. • 3. The mixed solution of both was then added to a microdevice, followed by the addition of sealing oil to enclose the solution in each well. • 4. The microdevice in which the solution was enclosed was incubated at 25° C. for 2 hours, and then the fluorescence intensity of each well was measured with a fluorescence microscope.
as §1, with “1. Ac-Ala-sHMRG” for “1. GP-sHMRG”, “by 250” for “by 2,500”, “for Ac-Ala-sHMRG” for “for GP-sHMRG”, “and 500” for “and 5,000”, “at 37°” for “at 25°”, “for 4” for “for 2”
• 1. Ac-GP-sSiR as a fluorescent probe for detecting peptidase activity was diluted with an assay buffer to 100 μM. The composition of the assay buffer is 100 mM HEPES-NaOH (pH 7.4), 1 mM MgCl2, 1 mM CaCl2, 1 mM DTT, 3 mM Triton X-100. • 2. […] The microdevice in which the solution was enclosed was incubated at 37° C. for 2 hours, and then the fluorescence intensity of each well was measured with a fluorescence microscope.

[2] = test system: protease activity in human plasma sample; experiment: Enzyme activity assay in microdevice with human plasma, protease probes
Procedure: • 1. Suc-AAPA-sHMRG as a fluorescent probe for detecting protease activity was diluted with an assay buffer to 200 μM. The composition of the assay buffer is 100 mM HEPES-NaOH (pH 7.4), 1 mM MgCl2, 1 mM CaCl2, 1 mM DTT, 3 mM Triton X-100. • 2. Next, a human plasma sample was diluted by 250 times with the above assay buffer, and mixed in an equal amount with the diluted solution of the probe. At this time, the final concentrations of both are 100 μM for Suc-AAPA-sHMRG and 500 fold dilution for the human plasma sample. • 3. The mixed solution of both was then added to a microdevice, followed by the addition of sealing oil to enclose the solution in each well. • 4. The microdevice in which the solution was enclosed was incubated at 37° C. for 4 hours, and then the fluorescence intensity of each well was measured with a fluorescence microscope.
as §1, with “Ac-LRGG-sSiR” for “GP-sHMRG”, “protease” for “peptidase”, “10,000” for “2,500”, “20,000” for “5,000”, “37°” for “25°”
• 1. EP-sSiR as a fluorescent probe for detecting protease activity was diluted with an assay buffer to 60 μM. […] The microdevice in which the solution was enclosed was incubated at 25° C. for 2 hours, and then the fluorescence intensity of each well was measured with a fluorescence microscope.

[3] = test system: aminopeptidase activity in human plasma sample; experiment: Enzyme activity assay in microdevice with human plasma, aminopeptidase probes; conditions: 50 μM probe
Procedure: • 1. Ala-sHMRG as a fluorescent probe for detecting aminopeptidase activity was diluted with an assay buffer to 100 μM. The composition of the assay buffer is 100 mM HEPES-NaOH (pH 7.4), 1 mM MgCl2, 0.1% BSA, 1 mM DTT, 1 mM Triton X-100, • 2. Next, a human plasma sample was diluted by 500 times with the above assay buffer, and mixed in an equal amount with the diluted solution of the probe. At this time, the final concentrations of both are 50 μM for Ala-sHMRG and 1,000 fold dilution for the human plasma sample. • 3. The mixed solution of both was then added to a microdevice, followed by the addition of sealing oil to enclose the solution in each well. • 4. The microdevice in which the solution was enclosed was incubated at 37° C. for 4 hours, and then the fluorescence intensity of each well was measured with a fluorescence microscope.
as §1, with “1. Leu-sHMRG” for “1. GP-sHMRG”, “detecting aminopeptidase” for “detecting peptidase”, “MgCl2,” for “MgCl2, 1 mM CaCl2,”, “for Leu-sHMRG” for “for GP-sHMRG”, “at 37°” for “at 25°”, “for 4” for “for 2”
(§2) • 5. Met-sHMRG as a fluorescent probe for detecting aminopeptidase activity was diluted with an assay buffer to 100 μM. The composition of the assay buffer is 100 mM HEPES-NaOH (pH 7.4), 1 mM MgCl2, 1 mM CaCl2, 1 mM DTT, 3 mM Triton X-100. • 6. Next, a human plasma sample was diluted by 500 times with the above assay buffer, and mixed in an equal amount with the diluted solution of the probe. At this time, the final concentrations of both are 50 μM for Met-sHMRG and 1,000 fold dilution for the human plasma sample. • 7. The mixed solution of both was then added to a microdevice, followed by the addition of sealing oil to enclose the solution in each well. • 8. The microdevice in which the solution was enclosed was incubated at 37° C. for 2 hours, and then the fluorescence intensity of each well was measured with a fluorescence microscope.
as §2, with “• 9. Tyr-sHMRG” for “• 5. Met-sHMRG”, “• 10.” for “• 6.”, “for Tyr-sHMRG” for “for Met-sHMRG”, “• 11.” for “• 7.”, “• 12.” for “• 8.”, “for 4” for “for 2”
• 1. Lys-sHMRG as a fluorescent probe for detecting aminopeptidase activity was diluted with an assay buffer to 100 μM. The composition of the assay buffer is 100 mM HEPES-NaOH (pH 7.4), 1 mM MgCl2, 1 mM CaCl2, 1 mM DTT, 3 mM Triton X-100. • 2. Next, a human plasma sample was diluted by 10,000 times with the above assay buffer, and mixed in an equal amount with the diluted solution of the probe. At this time, the final concentrations of both are 50 μM for Lys-sHMRG and 20,000 fold dilution for the human plasma sample. • 3. […]

[4] = human plasma 20,000 fold dilution, 37° C. for 2 hours
[5] = human plasma 1,000 fold dilution, 37° C. for 4 hours
[6] = human plasma 1,000 fold dilution, 37° C. for 2 hours

With CC(=O)N[C@@H](C)C(=O)Nc1ccc2c(c1)Oc1cc(N)ccc1C21OCc2cc(S(=O)(=O)O)ccc21 (stereo partly shown) [Ac-Ala-sHMRG] the “fluorescence intensity of wells in which the reacting enzyme was enclosed” value (from here on “fluorescence intensity of wells”) ([1]; human plasma 500 fold dilution, 37° C. for 4 hours) was “increase in fluorescence intensity was observed”.

For CC(=O)NCC(=O)N1CCCC1C(=O)Nc1ccc2c(c1)[Si](C)(C)C1=CC(=N)C=CC1=C2c1cc(S(=O)(=O)O)ccc1C (stereo not shown) [Ac-GP-sSiR], the “fluorescence intensity of wells” value [1, 4] was “increase in fluorescence intensity was observed”.

For CC(=O)N[C@@H](CC(C)C)C(=O)N[C@H](CCCNC(=N)N)C(=O)NCC(=O)NCC(=O)Nc1ccc2c(c1)[Si](C)(C)C1=CC(=N)C=CC1=C2c1cc(S(=O)(=O)O)ccc1C [Ac-LRGG-sSiR] (Ac-L[dR]GG-X2), the “fluorescence intensity of wells” value ([2]; 50 μM probe, human plasma 20,000 fold dilution, 37° C. for 2 hours) was “increase in fluorescence intensity was observed”.

C[C@H](N)C(=O)Nc1ccc2c(c1)Oc1cc(N)ccc1C21OCc2cc(S(=O)(=O)O)ccc21 (stereo partly shown) [Ala-sHMRG] was tested, and the “fluorescence intensity of wells” value [3, 5] was “increase in fluorescence intensity was observed”.

With Cc1ccc(S(=O)(=O)O)cc1C1=C2C=CC(=N)C=C2[Si](C)(C)c2cc(NC(=O)[C@@H](N)CCCNC(=N)N)ccc21 [Arg-sSiR] the “fluorescence intensity of wells” value [3, 5] was “increase in fluorescence intensity was observed”.

In the case of Cc1ccc(S(=O)(=O)O)cc1C1=C2C=CC(=N)C=C2[Si](C)(C)c2cc(NC(=O)C3CCCN3C(=O)[C@@H](N)CCC(=O)O)ccc21 (stereo partly shown) [EP-sSiR], the “fluorescence intensity of wells” value ([2]; 30 μM probe, human plasma 5,000 fold dilution, 25° C. for 2 hours) is reported as “increase in fluorescence intensity was observed”.

CC(C)C[C@H](N)C(=O)Nc1ccc2c(c1)Oc1cc(N)ccc1C21OCc2cc(S(=O)(=O)O)ccc21 (stereo partly shown) [Leu-sHMRG] was tested, and the “fluorescence intensity of wells” value ([3]; human plasma 5,000 fold dilution, 37° C. for 4 hours) was “increase in fluorescence intensity was observed”.

In the case of NCCCC[C@H](N)C(=O)Nc1ccc2c(c1)Oc1cc(N)ccc1C21OCc2cc(S(=O)(=O)O)ccc21 (stereo partly shown) [Lys-sHMRG], the “fluorescence intensity of wells” value [3, 4] is reported as “increase in fluorescence intensity was observed”.

CSCC[C@H](N)C(=O)Nc1ccc2c(c1)Oc1cc(N)ccc1C21OCc2cc(S(=O)(=O)O)ccc21 (stereo partly shown) [Met-sHMRG] was tested, and the “fluorescence intensity of wells” value [3, 6] was “increase in fluorescence intensity was observed”.

C[C@H](NC(=O)CCC(=O)O)C(=O)N[C@@H](C)C(=O)N1CCC[C@@H]1C(=O)N[C@@H](C)C(=O)Nc1ccc2c(c1)Oc1cc(N)ccc1C21OCc2cc(S(=O)(=O)O)ccc21 (stereo partly shown) [Suc-AAPA-sHMRG] (Suc-AA[dP]A-X1) was tested, and the “fluorescence intensity of wells” value ([2]; 100 μM probe, human plasma 500 fold dilution, 37° C. for 4 hours) was “increase in fluorescence intensity was observed”.

For Cc1ccc(S(=O)(=O)O)cc1C1=C2C=CC(=N)C=C2[Si](C)(C)c2cc(NC(=O)[C@@H](N)Cc3c[nH]c4ccccc34)ccc21 [Trp-sSiR], the “fluorescence intensity of wells” value [3, 5] was “increase in fluorescence intensity was observed”.

For Nc1ccc2c(c1)Oc1cc(NC(=O)[C@@H](N)Cc3ccc(O)cc3)ccc1C21OCc2cc(S(=O)(=O)O)ccc21 (stereo partly shown) [Tyr-sHMRG], the “fluorescence intensity of wells” value [3, 5] was “increase in fluorescence intensity was observed”.

With Nc1ccc2c(c1)Oc1cc(NC(=O)CC[C@@H](N)C(=O)O)ccc1C21OCc2cc(S(=O)(=O)O)ccc21 (stereo partly shown) [gGlu-sHMRG] the “fluorescence intensity of wells” value [3, 6] was “increase in fluorescence intensity was observed”.
